According to patent US20160235686A1, “PROCESSES FOR PREPARING A SOLID POLYMER MATRIX CONTAINING A CORE MATERIAL BY PRESSURE CYCLING OF SUPERCRITICAL FLUID” (priority 2013, published 2016):
Non-standard residues stand in square brackets, D forms with d. Residues, ends and D or L forms follow the SMILES beside them. *: point of attachment. dPhe(4-NHCONH2) = NC(=O)Nc1ccc(C[C@@H](N)C(=O)O)cc1; Dihydroorotyl(S) = O=C1C[C@@H](C(=O)*)NC(=O)N1; dPhe(4-Cl) = N[C@H](Cc1ccc(Cl)cc1)C(=O)O; Phe(4-NH2) = Nc1ccc(C[C@H](N)C(=O)O)cc1; d2Nal = N[C@H](Cc1ccc2ccccc2c1)C(=O)O; Lys(iPr) = CC(C)NCCCC[C@H](N)C(=O)O; d3Pal = N[C@H](Cc1cccnc1)C(=O)O

Test: In vitro release testing of degarelix from microparticles
Type: physicochemical
Details: effect of 10 pressure cycles vs no pressure cycling, manitol/acetate buffer pH 4, 37° C.
Method: In-vitro release of microparticles is conducted with a manitol/acetate buffer solution at pH 4. […] Each sample is analysed in triplicate.
A 25 mg sample is weighed out into a 25 mL volumetric flask. 1 mL of acetone is added to the volumetric flask to dissolve the microparticles. Once dissolved, the volumetric flask is topped up with water (approximately 24 mL), precipitating the polymer. A 1 mL sample of the supernatant is taken and centrifuged at 13000 rpm for 3 min. From this, a 200 μL sample is taken and analysed by HPLC. The loading determination method is carried out in triplicate and an average is taken.

decrease in the initial burst release of degarelix from the formulation (FIG. 1, PLGA formulation prepared with processing aid (DMSO)): approximately 15%
decrease in the initial burst release of degarelix from the formulation (FIG. 2, PLGA formulation prepared without a processing aid): approximately 3%
Structure (SMILES): CC(=O)N[C@H](Cc1ccc2ccccc2c1)C(=O)N[C@H](Cc1ccc(Cl)cc1)C(=O)N[C@H](Cc1cccnc1)C(=O)N[C@@H](CO)C(=O)N[C@@H](Cc1ccc(NC(=O)[C@@H]2CC(=O)NC(=O)N2)cc1)C(=O)N[C@H](Cc1ccc(NC(N)=O)cc1)C(=O)N[C@@H](CC(C)C)C(=O)N[C@@H](CCCCNC(C)C)C(=O)N1CCC[C@H]1C(=O)N[C@H](C)C(N)=O [degarelix] (Ac-[d2Nal][dPhe(4-Cl)][d3Pal]S[Phe(4-NH2)](Dihydroorotyl(S))[dPhe(4-NHCONH2)]L[Lys(iPr)]P[dA]-NH2)
